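Dose response: 5 concentrations. Exposure: 48 h. Format: 96-well plates. Endpoint: linear interpolation; highest concentration if not reached. TGI: total growth inhibition.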

Among the test systems are SK-OV-3 ovarian; U251 CNS; MDA-N; NCI-H460 lung; DU-145 prostate; HS 578T breast; A549 NSCLC; HT29 colon; SF-268 CNS; OVCAR-8 ovarian; HOP-92 NSCLC.
What all share (experiment): NCI-60 cell line screen, 48 h

Regarding `O=C1/C(=C/c2ccc(Cl)cc2)Oc2ccccc21`, the TGI with SK-OV-3 ovarian is above 100 µM; with U251 CNS, above 100 µM; in the experiment with MDA-N, above 100 µM; in the experiment with NCI-H460 lung, above 100 µM; with DU-145 prostate, 40.3 µM; in the experiment with HS 578T breast it was 74.7 µM. Moreover, the TGI with A549 NSCLC is 35 µM; with HT29 colon, above 100 µM; in the experiment on SF-268 CNS, above 100 µM; with OVCAR-8 ovarian, 89.5 µM.

In the case of `N#CC(NNC(=O)c1ccccc1O)c1c(O)ccc2ccccc12` (stereo unspecified), the TGI is 40.7 µM in the experiment on SK-OV-3 ovarian; 37.1 µM with U251 CNS; above 63.2 µM in the experiment on MDA-N; 40.7 µM in the experiment with HOP-92 NSCLC; 36.8 µM in the experiment with NCI-H460 lung; 18.4 µM with DU-145 prostate. Moreover, the TGI was above 86.2 µM in the experiment with HS 578T breast; 26.8 µM in the experiment on A549 NSCLC; above 87.7 µM in the experiment with HT29 colon; 64.9 µM in the experiment on SF-268 CNS; 25.9 µM in the experiment with OVCAR-8 ovarian.

As to `CC(=O)NN(c1ccccc1)C1CCN(c2ccccc2)N1C(C)=O` (stereo unspecified), the TGI in the experiment on SK-OV-3 ovarian, in the experiment with MDA-N, in the experiment with NCI-H460 lung, in the experiment with DU-145 prostate, with HS 578T breast and with A549 NSCLC was above 10 µM throughout. Further, the TGI with HT29 colon, with SF-268 CNS and with OVCAR-8 ovarian was above 10 µM in each case.

Regarding `COC(=O)C(=O)C(C(=O)C(=O)Nc1ccc(C)c(C)c1)c1nc2ccc([N+](=O)[O-])cc2[nH]c1=O` (stereo unspecified), the TGI in the experiment on SK-OV-3 ovarian, in the experiment with U251 CNS, in the experiment on MDA-N, in the experiment with HOP-92 NSCLC, with NCI-H460 lung and with HS 578T breast was above 100 µM each time. In addition, the TGI in the experiment on A549 NSCLC, with HT29 colon, with SF-268 CNS and in the experiment with OVCAR-8 ovarian was above 100 µM in each case.

Turning to `CC(=O)N[C@@H](Cc1ccc(O)cn1)C(=O)NC1CCCCC1`, the TGI in the experiment on SK-OV-3 ovarian, in the experiment with U251 CNS, with MDA-N, in the experiment on HOP-92 NSCLC, in the experiment on DU-145 prostate and in the experiment on HS 578T breast was above 100 µM throughout. Besides, the TGI in the experiment with A549 NSCLC, in the experiment on HT29 colon, in the experiment with SF-268 CNS and with OVCAR-8 ovarian was above 100 µM each time.

Turning to `CCCCCCCc1ccc(-c2nnc(N=Nc3ccc(OCCCCC)cc3)s2)s1`, the TGI in the experiment with SK-OV-3 ovarian, with U251 CNS, with MDA-N, with NCI-H460 lung, in the experiment with DU-145 prostate and in the experiment with HS 578T breast was above 100 µM each time. For the same compound, the TGI in the experiment on A549 NSCLC, in the experiment on HT29 colon and in the experiment with SF-268 CNS was above 100 µM in each case.

In the case of `COc1ccc(/C=N/NC(=S)Nc2cc(C)ccc2OC)cc1`, the TGI in the experiment on SK-OV-3 ovarian is above 100 µM; in the experiment on MDA-N it was 70.7 µM; in the experiment with HOP-92 NSCLC, 72 µM; in the experiment with DU-145 prostate it was above 100 µM; with HS 578T breast, above 100 µM; with A549 NSCLC, above 100 µM. The TGI in the experiment with HT29 colon is 79.4 µM; in the experiment on SF-268 CNS it was above 100 µM; in the experiment on OVCAR-8 ovarian it was above 100 µM.

Consider `COc1ccc(CC[N+]2(C)COc3cc4oc(=O)cc(C)c4cc3C2)cc1OC` (stereo unspecified), for which the TGI with SK-OV-3 ovarian, in the experiment on U251 CNS, with MDA-N, in the experiment on HOP-92 NSCLC, with DU-145 prostate and in the experiment on HS 578T breast was above 100 µM each time. Further, the TGI in the experiment on A549 NSCLC, in the experiment on HT29 colon, in the experiment with SF-268 CNS and in the experiment with OVCAR-8 ovarian was above 100 µM each time.

Regarding `COc1cccc(CCCNC(=O)Cc2ccccc2CO)c1`, the TGI in the experiment on SK-OV-3 ovarian, in the experiment on U251 CNS, in the experiment with MDA-N, with HOP-92 NSCLC, in the experiment with NCI-H460 lung and in the experiment with DU-145 prostate was above 100 µM each time. The TGI with HS 578T breast, in the experiment with A549 NSCLC, in the experiment on HT29 colon and in the experiment on OVCAR-8 ovarian was above 100 µM each time.

Consider `COc1ccc(/C=N/Nc2nnc3c(n2)c2ccccc2c2nn(-c4ccccc4Cl)nc23)cc1`, for which the TGI in the experiment with SK-OV-3 ovarian, in the experiment on U251 CNS, in the experiment with MDA-N, in the experiment with HOP-92 NSCLC, in the experiment with DU-145 prostate and in the experiment on HS 578T breast was above 100 µM throughout. Moreover, the TGI in the experiment with A549 NSCLC, with HT29 colon, in the experiment on SF-268 CNS and with OVCAR-8 ovarian was above 100 µM in each case.

Take `CC(C)[C@@H]1NC(=O)[C@@H]2N=C(O[C@H]2C)[C@H](C(C)C)NC(=O)C2N=C1O[C@H]2C`: the TGI in the experiment with MDA-N, in the experiment with HOP-92 NSCLC, in the experiment with NCI-H460 lung, with DU-145 prostate, in the experiment with HS 578T breast and with A549 NSCLC was above 100 µM throughout. The TGI in the experiment with HT29 colon, in the experiment on SF-268 CNS and in the experiment with OVCAR-8 ovarian was above 100 µM throughout.

Regarding `C[n+]1c(-c2ccc(/C=N/NC(=O)C(=O)N/N=C/c3ccc(-c4cn5ccccc5[n+]4C)cc3)cc2)cn2ccccc21`, the TGI with SK-OV-3 ovarian, with U251 CNS, with MDA-N, in the experiment on HOP-92 NSCLC, in the experiment on NCI-H460 lung and in the experiment with DU-145 prostate was above 100 µM each time. Further, the TGI in the experiment on HS 578T breast, with A549 NSCLC, in the experiment on HT29 colon and in the experiment with OVCAR-8 ovarian was above 100 µM each time.

For `COc1cccc(N=NN2CCCC2)c1`, the TGI in the experiment with SK-OV-3 ovarian, in the experiment on U251 CNS, with MDA-N, in the experiment with HOP-92 NSCLC, in the experiment with NCI-H460 lung and in the experiment on DU-145 prostate was above 100 µM in each case. Further, the TGI in the experiment on HS 578T breast, in the experiment with SF-268 CNS and in the experiment on OVCAR-8 ovarian was above 100 µM throughout.
